Source: patent publication US20210047278A1, “E3 UBIQUITIN LIGASE AGONISTS, PHARMACEUTICAL COMPOSITIONS INCLUDING THE E3 UBIQUITIN LIGASE AGONISTS, RELATED METHODS OF USE” (FRED HUTCHINSON CANCER RESEARCH CENTER, priority 2018, published 2021)
Where two headings read alike, the source gives them in different places.

Columns and labels:
FBW7^ARG+pCycE = target: T1, FBW7^ARG+pCycE (Homo sapiens, UniProt Q969H0, R505L); assay: FBW7^ARG-cyclin E agonist ALPHAscreen (primary PRUN, confirmation CRUN1, dose-response DRUN); format: binding; conditions: for Emax / EC50: DRUN dose-response; for Emax: relative to WT-FBW7+pCycE, read-out: FBW7 ACT Averaged Max % Response
T1 construct: GST (TEV site and flexible linker) (N, cleaved yes); made in house; host or cells: SF9 insect cells (baculovirus)
Description: FBW7^ARG refers to a class of loss-of-function mutations of the of FBW7 ubiquitin ligase that target a key phosphate-binding arginine residue in the FBW7 substrate-binding domain. These mutations are commonly found in human cancers and promote tumorigenesis by impairing the interactions between FBW7 and its substrates, such as cyclin E and Myc. Described herein is a high throughput screen (HTS) to identify agonists, such as small molecules, that augment FBW7^ARG-substrate binding. In an embodiment, the HTS is based on the Amplified Luminescent Proximity Homogenous Assay (ALPHAscreen) because it detects protein-protein interactions with a large dynamic range. ALPHAscreen is a bead-based proximity assay wherein donor beads contain a photosensitizer, phthalocyanine, and acceptor beads contain thioxene, anthracene and rubrenein in sufficient quantities to generate a chemiluminescence/fluorescence reaction (FIG. 4A). Upon excitation with excitation illumination, such as light having a wavelength of 680 nm, of the donor beads, phthalocyanine converts ambient oxygen to singlet oxygen, which can diffuse approximately 200 nm within its 4-microsecond half-life. If an acceptor bead is in close proximity to an excited donor bead, singlet oxygen transfers its energy to the acceptor, resulting in emitted light at a broad bandwidth of −520-620 nm. The HTS-compatible FBW7/cyclin E ALPHAscreen assay described herein uses streptavidin coupled donor beads and Ni-chelate acceptor beads. In this assay, biotinylated cyclin E phosphopeptide and the His-tagged FBW7 mutant protein have high affinity for the donor and acceptor beads, respectively (FIG. 4B). A small molecule that is able to bridge the binding sites of the peptide and the mutant protein (or induce a conformational change that increases affinity of the protein for the peptide) will bring the donor and acceptor beads in close proximity to each other, resulting in an ALPHA signal. As designed, this assay format is a very sensitive, non-radioactive, homogenous “mix-and-read” format that is HT compatible in 384 and 1536 well formats.
In the 384-well screening assay, 10 uL of acceptor beads with 25 nM of the FBW7^ARG (RLFBW7) are dispensed to test wells; acceptor beads with 25 nM of the wt-FBW7 protein (WTFBW7) are dispensed to control wells. Test compounds are then added by pintool transfer and the mixture is incubated for 30 minutes. An additional 10 uL of donor beads with 25 nM cyclin E phosphopeptide is then added to all wells and the plate is incubated for 4 hours before the ALPHA signal is measured.
In preparation for large-scale screening, the assay was miniaturized to a 1536-well format. The miniaturized screen performed outstandingly in all respects. The screen was enhanced with respect to several parameters and assayed its performance using mutant FBW7 and wt-FBW7, as well as non-specific assay agonists. […] For example, the following Z′-scores/FBW7 concentrations were obtained: 6.25 nM/Z′=0.62, 12.5 nm/Z′=0.85, 25.0 nM/Z′=0.84.
1. Add 2.5 uL of RLFBW7/cycE˜P/Ni beads: Final [25 nM/25 nM/10 ug/ml].
2. Add 2.5 uL of WTFBW7/cycE˜P/Ni beads: Final [25 nM/25 nM/10 ug/ml].
4. Add 2.5 uL of SA beads to all wells Final [10 ug/ml],
5. Add 30 nL of compounds,
6. Read ALPHAscreen on Envision
The large-scale FBW7 agonist ALPHAscreen was completed using FBW7^ARG and a phosphorylated cyclin E (pCycE) degron peptide. Wt-FBW7+pCycE-peptide was the “high control”, and Wt-FBW7+unphosph. CycE peptide was the “low control”. The screen was performed on the 645,000-compound Scripps Diversity Library using 1536-well format and drug concentrations of 26.1 μM. An algorithm aided hit identification based on the average percent activation for all compounds and their standard deviation.
A confirmation assay of all 853 compounds in triplicate using a single concentration (26.1 μM). […]

FBW7^ARG (RLFBW7) alone = target: T2, FBW7^ARG (RLFBW7) alone (Homo sapiens, UniProt Q969H0, R505L); assay: Counterscreen 1 ALPHAscreen with FBW7^ARG alone (CSRUN1/DCSRUN1); format: binding; conditions: dose-response counterscreen; for Emax: read-out: RLFBW7 ACT DCSRUN1 Averaged Max % Response
T2 construct: GST (TEV site and flexible linker) (N, cleaved yes); made in house; host or cells: SF9 insect cells (baculovirus)
Protocol: Studies in 384-well format were performed using the ENVISION system. Reagent concentrations (see FIG. 6A), order of addition, pH (see FIG. 6B), and reducing agent were altered with the goal of enhancing the dynamic range between wt-FBW7 (the positive control) and FBW7^ARG (FIG. 6 and not shown). Wt-FBW7 produced a signal 100× greater with phosphorylated cyclin E degron peptide compared with unphosphorylated, which represents the assay's maximum range (FIG. 6C). […] This assay thus detects the residual affinity of the FBW7^ARG-substrate interaction, which, as predicted, is stronger than wt-FBW7 protein with unphosphorylated cyclin E peptide. Concurrent with this primary assay, counter ALPHAscreens were developed which omitted either FBW7 or peptide (to eliminate hits that are general ALPHAscreen agonists), or used an irrelevant phosphopeptide (to eliminate compounds that simply augment binding to phosphopeptides). […]
The 77 hits were subjected to a dose-response assay in which each compound was tested in triplicate in a 10 point 3-fold dilutional series, to a maximum concentration of approximately 87 μM. Three screens were performed, using FBW7^ARG+pCycE (DRUN), FBW7^ARG (DCSRUN1), or pCycE alone (DCSRUN2). See TABLES 2, 3, and 4, respectively, and FIG. 10A. All of the assays performed extremely well, and threshold of 10% activation (relative to WT-FBW7+pCycE) was set as positive. […] Many hits fell into shared structure cluster ID groups, reinforcing the idea that they function as specific agonists (see below and TABLE 5).

[1] = triplicate, 10 point 3-fold dilution, max approx. 87 μM, read-out: FBW7 ACT Final EC50, Molar
[2] = confirmation assay, triplicate, single concentration 26.1 μM, read-out: FBW7 ACT CRUN1 Avg % Response and Stdev
[3] = primary screen, 1536-well, 26.1 μM, FBW7^ARG + pCycE degron peptide, high control wt-FBW7+pCycE, read-out: FBW7 ACT PRUN % Response
[4] = raw curve fit, read-out: RLFBW7 ACT DCSRUN1 EC50 Curve Fit Raw
[5] = read-out: RLFBW7 ACT DCSRUN1 Final EC50
[6] = raw curve fit, read-out: FBW7 ACT EC50 Curve Fit Raw, Molar

T1 sequence (Q969H0 64-707 R505L): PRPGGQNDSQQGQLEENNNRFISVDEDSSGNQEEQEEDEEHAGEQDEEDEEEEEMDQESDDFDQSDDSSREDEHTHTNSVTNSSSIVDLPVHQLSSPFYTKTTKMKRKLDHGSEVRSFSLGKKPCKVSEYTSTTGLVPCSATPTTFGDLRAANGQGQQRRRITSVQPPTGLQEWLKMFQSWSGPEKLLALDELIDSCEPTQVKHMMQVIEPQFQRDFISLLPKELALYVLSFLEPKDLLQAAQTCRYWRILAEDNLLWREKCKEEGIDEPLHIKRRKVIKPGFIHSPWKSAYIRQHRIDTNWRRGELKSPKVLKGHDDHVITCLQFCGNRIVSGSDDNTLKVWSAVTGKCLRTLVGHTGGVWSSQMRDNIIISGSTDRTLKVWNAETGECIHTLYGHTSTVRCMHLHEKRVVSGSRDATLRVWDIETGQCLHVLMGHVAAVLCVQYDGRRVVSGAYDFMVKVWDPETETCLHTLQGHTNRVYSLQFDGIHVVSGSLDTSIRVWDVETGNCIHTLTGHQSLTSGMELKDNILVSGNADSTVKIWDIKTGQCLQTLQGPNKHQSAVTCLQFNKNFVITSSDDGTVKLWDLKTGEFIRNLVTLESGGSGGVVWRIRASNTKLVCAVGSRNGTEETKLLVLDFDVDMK
T1 sequence (P63208 2-163 partner): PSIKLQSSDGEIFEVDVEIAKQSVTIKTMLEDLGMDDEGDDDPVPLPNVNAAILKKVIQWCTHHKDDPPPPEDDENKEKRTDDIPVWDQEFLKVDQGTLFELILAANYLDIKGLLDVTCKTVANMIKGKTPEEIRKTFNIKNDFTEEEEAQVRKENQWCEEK
T2 sequence (Q969H0 64-707 R505L): as the sequence (Q969H0 64-707 R505L) above
T2 sequence (P63208 2-163 partner): as the sequence (P63208 2-163 partner) above

SMILES	Emax (FBW7^ARG+pCycE)	EC50 (FBW7^ARG+pCycE; [1])	activation at 26.1 µM (FBW7^ARG+pCycE; [2])	activation at 26.1 µM (FBW7^ARG+pCycE; [3])	EC50 (FBW7^ARG (RLFBW7) alone; [4])	Emax (FBW7^ARG (RLFBW7) alone)	EC50 (FBW7^ARG (RLFBW7) alone; [5])	EC50 (FBW7^ARG+pCycE; [6])
O=C([C@H]1CC[C@H](Nc2nccc(-c3ccc4nc(C5CC5)nc(O)c4c3)n2)CC1)N1CCCC1 [SR-00000008677-1]	35.9%	> 65.3 µM	4.42 ± 0.03%	2.63%	0.0572 µM	0.06%	> 65.3 µM	–
CCCOC(=O)C1=C(C)N(CC)C(=O)NC1c1ccccc1[N+](=O)[O-] (stereo not shown) [SR-01000417871-1]	17.3%	> 67.2 µM	18.3 ± 0.97%	2.55%	2.8 µM	0.3%	> 67.2 µM	8.6 µM
Cc1cccc(CC(=O)Nc2cnn(-c3cccc(C(=O)N4CCNC(=O)CC4)c3)c2)c1 [SR-01000188911-1]	23.6%	> 65.3 µM	2.88 ± 0.43%	4.34%	1.7 µM	-0.141%	> 65.3 µM	7.5 µM
COc1cc2c(cc1OC)C(COc1ccc([N+](=O)[O-])cc1)N(C(=O)c1ccc3c(c1)OCO3)CC2 (stereo not shown) [SR-01000568734-1]	16%	> 49.8 µM	3.13 ± 0.23%	2.1%	–	1.58%	> 49.8 µM	9.2 µM
O=C(NCc1ccc(C(=O)NCCc2ccccn2)cc1)Nc1ccc(-c2cn[nH]c2)cc1 [SR-00000005517-1]	20%	> 65.3 µM	4.71 ± 0.2%	1.94%	28.3 µM	100%	28.2 µM	31.5 µM
COc1ccccc1N1C(=O)c2ccc(C(=O)Nc3cc([N+](=O)[O-])ccc3O)cc2C1=O [SR-01000236956-1]	10.6%	> 65.3 µM	3.72 ± 0.2%	2.14%	21.2 µM	2.25%	> 65.3 µM	22.1 µM
